Literature values, collected in patent US7148022B2, “Assay for anti-viral agent” (The University Court of the University of St. Andrews, priority 2000, dated 2006).

Tested on: picornavirus
Settings: background statement, refs 9 and 10

## C[C@H]1CCC/C=C/[C@@H]2C[C@H](O)C[C@H]2[C@H](O)/C=C/C(=O)O1 [Brefeldin-A]
  inhibition of picornavirus replication: one of the most potent known inhibitors
